Results reported in PubChem BioAssay AID248 (DTP/NCI, 2004).
Values joined by “and” are separate entries in the source; they are usually repeats but may differ in a detail not shown here. Equal entries are not always repeated. Inconclusive results and toxic doses are left out.

System: L1210 leukemia ip in BDF1 mice, survival T/C
Assay: NCI In Vivo Anticancer Drug Screen. Data for tumor model L1210 Leukemia (intraperitoneal) in B6D2F1 (BDF1) mice
Conditions: endpoint: mean survival time, higher = longer survival
Outline: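 Value reflects the ratio of survival in compound-treated mice to survival in vehicle-treated controls, with both groups carrying the same transplanted tumor.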

[1] = dose: 12.5 mg/kg/injection, schedule: Q01DX009 (ip), vehicle: Klucel (hydroxypropylcellulose) (HPC)
[2] = dose: 25.0 mg/kg/injection, schedule: Q01DX009 (ip), vehicle: Klucel (hydroxypropylcellulose) (HPC)
[3] = dose: 100.0 mg/kg/injection, schedule: Q04DX003 (ip), vehicle: saline with Tween-80
[4] = dose: 12.5 mg/kg/injection, schedule: Q01DX009 (ip), vehicle: saline with Tween-80
[5] = dose: 25.0 mg/kg/injection, schedule: Q01DX009 (ip), vehicle: saline with Tween-80
[6] = dose: 100.0 mg/kg/injection, schedule: Q01DX001 (ip), vehicle: saline
[7] = dose: 100.0 mg/kg/injection, schedule: Q04DX003 (ip), vehicle: saline
[8] = dose: 100.0 mg/kg/injection, schedule: Q01DX009 (ip), vehicle: saline with Tween-80
[9] = dose: 100.0 mg/kg/injection, schedule: Q04DX002 (ip), vehicle: saline with Tween-80
[10] = dose: 200.0 mg/kg/injection, schedule: Q04DX002 (ip), vehicle: saline with Tween-80
[11] = dose: 200.0 mg/kg/injection, schedule: Q04DX003 (ip), vehicle: saline with Tween-80
[12] = dose: 400.0 mg/kg/injection, schedule: Q04DX002 (ip), vehicle: saline with Tween-80
[13] = dose: 200.0 mg/kg/injection, schedule: Q01DX001 (ip), vehicle: saline
[14] = dose: 400.0 mg/kg/injection, schedule: Q01DX001 (ip), vehicle: saline
[15] = dose: 200.0 mg/kg/injection, schedule: Q04DX003 (ip), vehicle: saline
[16] = dose: 400.0 mg/kg/injection, schedule: Q04DX003 (ip), vehicle: saline
[17] = dose: 100.0 mg/kg/injection, schedule: Q01DX009 (ip), vehicle: Klucel (hydroxypropylcellulose) (HPC)
[18] = dose: 200.0 mg/kg/injection, schedule: Q01DX009 (ip), vehicle: Klucel (hydroxypropylcellulose) (HPC)
[19] = dose: 100.0 mg/kg/injection, schedule: Q01DX001 (ip), vehicle: carboxymethylcellulose (CMC)
[20] = dose: 200.0 mg/kg/injection, schedule: Q01DX001 (ip), vehicle: carboxymethylcellulose (CMC)
[21] = dose: 400.0 mg/kg/injection, schedule: Q01DX001 (ip), vehicle: carboxymethylcellulose (CMC)
[22] = dose: 50.0 mg/kg/injection, schedule: Q01DX009 (ip), vehicle: saline with Tween-80

Cc1nc(-c2ccc(N=Cc3ccc(N(CCOS(C)(=O)=O)CCOS(C)(=O)=O)cc3Cl)cc2)c(C)s1
T/C [1]: 114 % of control
T/C [2]: 111 % of control

CCN(CC)Cc1cc(Nc2cc(C)nc(/N=C(\N)Nc3cc(Cl)cc(Cl)c3)n2)ccc1O
T/C [3]: 98 % of control

Cc1ccc(N2CCN(CCCN3CCN(c4ccccc4Cl)CC3)CC2)cc1
T/C (dose: 6.25 mg/kg/injection, schedule: Q01DX009 (ip), vehicle: saline with Tween-80): 99 % of control
T/C [4]: 89 % of control
T/C (dose: 12.5 mg/kg/injection, schedule: Q04DX003 (ip), vehicle: saline): 92 % of control
T/C [5]: 94 % of control
T/C (dose: 25.0 mg/kg/injection, schedule: Q04DX003 (ip), vehicle: saline): 90 % of control

C=NC
T/C [6]: 105 % of control
T/C [7]: 103 % of control

Nc1cccc(CCc2nc(N)nc(N)c2-c2ccc(Cl)cc2)c1
T/C (dose: 100.0 mg/kg/injection, schedule: Q01DX001 (ip), vehicle: saline with Tween-80): 97 % of control
T/C (dose: 200.0 mg/kg/injection, schedule: Q01DX001 (ip), vehicle: saline with Tween-80): 95 % of control
T/C (dose: 400.0 mg/kg/injection, schedule: Q01DX001 (ip), vehicle: saline with Tween-80): 101 % of control

COc1ccc(C(=O)NC(=S)Nc2ccc(CCO)cc2)cc1
T/C [8]: 98 % of control and 101 % of control
T/C [9]: 98 % of control
T/C [3]: 96 % of control
T/C (dose: 200.0 mg/kg/injection, schedule: Q01DX009 (ip), vehicle: saline with Tween-80): 101 % of control and 102 % of control
T/C [10]: 100 % of control
T/C [11]: 94 % of control
T/C (dose: 400.0 mg/kg/injection, schedule: Q01DX009 (ip), vehicle: saline with Tween-80): 94 % of control and 104 % of control
T/C [12]: 98 % of control
T/C (dose: 400.0 mg/kg/injection, schedule: Q04DX003 (ip), vehicle: saline with Tween-80): 92 % of control

Cc1ccc(S(=O)(=O)Nc2ccccc2O)cc1
T/C [6]: 102 % of control
T/C [13]: 98 % of control
T/C [14]: 98 % of control

CCCCCCCCCCCCC(=O)N(CC)CC
T/C (dose: 100.0 mg/kg/injection, schedule: Q04DX002 (ip), vehicle: Klucel (hydroxypropylcellulose) (HPC)): 87 % of control
T/C (dose: 200.0 mg/kg/injection, schedule: Q04DX002 (ip), vehicle: Klucel (hydroxypropylcellulose) (HPC)): 94 % of control
T/C (dose: 400.0 mg/kg/injection, schedule: Q04DX002 (ip), vehicle: Klucel (hydroxypropylcellulose) (HPC)): 94 % of control

COC(=O)C(C)O (configuration not stated)
T/C [7]: 97 % of control
T/C [15]: 105 % of control
T/C [16]: 107 % of control

O=[N+]([O-])c1ccc(Cl)cc1C1OCCO1
T/C [6]: 93 % of control
T/C [13]: 93 % of control
T/C [14]: 104 % of control

CCn1cnc2c(SC3CCCC3)ncnc21
T/C (dose: 15.0 mg/kg/injection, schedule: Q01DX015 (ip), vehicle: carboxymethylcellulose (CMC)): 96 % of control
T/C (dose: 30.0 mg/kg/injection, schedule: Q01DX015 (ip), vehicle: carboxymethylcellulose (CMC)): 104 % of control
T/C (dose: 62.0 mg/kg/injection, schedule: Q01DX015 (ip), vehicle: carboxymethylcellulose (CMC)): 110 % of control
T/C (dose: 62.0 mg/kg/injection, schedule: Q01DX Z (ip), vehicle: carboxymethylcellulose (CMC)): 95 % of control
T/C (dose: 125.0 mg/kg/injection, schedule: Q01DX015 (ip), vehicle: carboxymethylcellulose (CMC)): 124 % of control
T/C (dose: 125.0 mg/kg/injection, schedule: Q01DX Z (ip), vehicle: carboxymethylcellulose (CMC)): 113 % of control
T/C (dose: 500.0 mg/kg/injection, schedule: Q01DX Z (ip), vehicle: carboxymethylcellulose (CMC)): 101 % of control

COc1ccc(NC(=O)Nc2cccc(O)c2)c(OC)c1
T/C [17]: 100 % of control
T/C [18]: 96 % of control
T/C (dose: 400.0 mg/kg/injection, schedule: Q01DX009 (ip), vehicle: Klucel (hydroxypropylcellulose) (HPC)): 100 % of control

CC(=O)OC1C(C)OC(n2cnc3c(=O)[nH]cnc32)C1OC(C)=O (configuration not stated)
T/C (dose: 50.0 mg/kg/injection, schedule: Q01DX001 (ip), vehicle: carboxymethylcellulose (CMC)): 106 % of control
T/C [19]: 106 % of control
T/C [20]: 108 % of control
T/C [21]: 101 % of control

CCN(N=O)c1ccc(/C=C2/C=Cc3ccccc32)cc1
T/C [19]: 95 % of control
T/C [20]: 90 % of control
T/C [21]: 101 % of control

Cc1cc(C)c(CCl)c(C)c1CCl
T/C [6]: 119 % of control

COc1ccc2c(c1)CCC1=C2CCC2C1C(=O)CCC21OCCCO1 (configuration not stated)
T/C (dose: 100.0 mg/kg/injection, schedule: Q04DX003 (ip), vehicle: Klucel (hydroxypropylcellulose) (HPC)): 100 % of control
T/C (dose: 200.0 mg/kg/injection, schedule: Q04DX003 (ip), vehicle: Klucel (hydroxypropylcellulose) (HPC)): 96 % of control
T/C (dose: 400.0 mg/kg/injection, schedule: Q04DX003 (ip), vehicle: Klucel (hydroxypropylcellulose) (HPC)): 96 % of control

O=C(NO)c1cc(Br)cc(Br)c1O
T/C [5]: 98 % of control
T/C [22]: 102 % of control
T/C [8]: 100 % of control
T/C [9]: 93 % of control
T/C [10]: 97 % of control
T/C [12]: 200 % of control

c1ccc(C(NC2=NCCCCCC2)c2ccco2)cc1 (configuration not stated)
T/C [1]: 98 % of control
T/C [2]: 100 % of control

O=C(O)/C=C/C(=O)Nc1ccc2c(c1)C(NC(=O)/C=C/C(=O)O)c1ccccc1-2 (configuration not stated)
T/C [6]: 93 % of control
T/C [7]: 100 % of control
T/C [13]: 97 % of control
T/C [15]: 96 % of control
T/C [14]: 88 % of control
T/C [16]: 92 % of control

COc1ccc(NC(=O)OC/C=C/c2ccccc2)c(OC)c1
T/C [17]: 90 % of control
T/C [18]: 87 % of control

Cc1cc(=O)[nH]c2ccccc12
T/C [3]: 91 % of control
T/C [11]: 95 % of control

CC[N+](C)(CC)Cc1cc(C(C)=O)c(C)o1
T/C [4]: 90 % of control
T/C [5]: 95 % of control
T/C [22]: 93 % of control

CC1=NN(c2ccccc2)C(=O)C1N=Nc1ccccc1S(=O)(=O)O (configuration not stated)
T/C [6]: 96 % of control
T/C [13]: 94 % of control
T/C [14]: 102 % of control

O=C(Nc1cnccn1)C(F)(F)F
T/C [6]: 105 % of control
T/C [13]: 97 % of control
T/C [14]: 105 % of control
